Cytotoxicity data for 38 compounds are collected here from ChEMBL document CHEMBL3507680, “University of Dundee, Gates Library screen for HepG2 cell viability”.

Each structure is given as a SMILES string.

This data set can be described thus: Human HepG2 cell viability assay in 384 well format. The note with it: HepG2 cells, read-out: Inhibition. Set-up: dose 125 nL, time 70.5 hour; cytotoxicity at 70.5 h: concentration not given beside the values. In kind it is toxicity, cell-based.

Regarding `CC(C)(CN1CCC(Cc2cccc(C(=O)O)c2)C1)N1CCOCC1` (stereo not drawn), the cytotoxicity at 70.5 h was -9.68%.
Regarding `CCc1cc(NCCNC(=O)c2cccnc2)n2nc(C)c(C)c2n1`, the cytotoxicity at 70.5 h stood at 21%.
The value for `CN(C(=O)COc1ccc(F)cc1)[C@@H]1CS(=O)(=O)C[C@H]1O` was -0.138%; that for `CCc1noc(CN(C)C(=O)C2COc3ccccc3C2)n1` (stereo not drawn) was -0.861%.
Regarding `CSc1ncccc1C(=O)N1CCC2(CC1)c1nc[nH]c1CCN2C`, the cytotoxicity at 70.5 h worked out at 7.45%.
Turning to `CCCC(CNc1cc(C(C)C)nc2ccnn12)N(C)C` (stereo not drawn), the cytotoxicity at 70.5 h stood at 39.1%.
With `Cc1cc(N[C@H](CO)c2ccccc2)n2nc(C)cc2n1` the figure was -1.18%.
As to `COc1ccc(CC(=O)N2CC[C@@]3(O)CCNC[C@H]3C2)c(OC)c1`, the cytotoxicity at 70.5 h is -7.58%.
With `Cn1ccnc1SCCNC(=O)CC1CCc2ccccc21` (stereo not drawn) the figure was -10.6%.
With `Cc1ccc(C(C(=O)N2CCC(Cc3noc(C)n3)CC2)N(C)C)cc1` (stereo not drawn) the figure was -8.55%; with `N[C@H]1CCCN(C(=O)c2cnc(COc3ccccc3)nc2O)C1`, -9.44%.
The value for `CSCc1nc(CCNC(=O)C(N)c2c(C)n[nH]c2C)cs1` (stereo not drawn) was -3.99%; that for `CCCN(Cc1cccnc1)C(=O)C1CCN(Cc2ccco2)CC1` was -2.7%.
Take `Cc1nc(CN2CCN(Cc3cc4n(n3)CCNC4)CC2)cs1`: the cytotoxicity at 70.5 h stood at 22.5%.
Turning to `CC(=O)C1(c2ccccc2)CCN(C(=O)c2ccc3nnnn3c2)CC1`, the cytotoxicity at 70.5 h is 2.77%.
The value for `CSCCc1c(-c2ccccc2)ncn1CCNc1cccnc1` was -8.03%; that for `COc1ccc(OC)c(C(=O)N2C[C@H]3CC[C@@H]2CN(C)C3)c1` was 20.2%.
With `COc1cccc2c1OCC(CNC(=O)Cc1cnccn1)C2` (stereo not drawn) the figure was -3.59%.
With `NCCC1CN(c2nc(-c3ccccc3)nc3c2CCNC3)CCO1` (stereo not drawn) the figure was 2.96%.
Consider `Cc1c(CN2C[C@H](O)[C@@H](N3CCOCC3)C2)[nH]c2ccc(F)cc12`, for which the cytotoxicity at 70.5 h is 12.2%.
Regarding `Cc1cnc(N2CCCOC(CN3CCCCC3)C2)nc1` (stereo not drawn), the cytotoxicity at 70.5 h is -5.72%.
The value for `CSCCC(=O)N1CCC(c2nnc(CN(C)CCO)n2C)CC1` was -2.23%.
With `OCCCN1CCc2onc(C(c3ccccc3)c3ccccc3)c2C1` the figure was 6.85%; with `O=C1CCCN1CCN1CC=C(c2cnn(C3CCS(=O)(=O)C3)c2)CC1` (stereo not drawn), -10.3%.
In the case of `CCc1nnc(CN(CC)C(=O)C2CC(=O)N(C3CCCC3)C2)o1` (stereo not drawn), the cytotoxicity at 70.5 h is -10.6%.
The value for `CCC(C(=O)NC1(COC)CCCC1)n1cccn1` (stereo not drawn) was 5.08%.
`COCCN1C[C@H]2CC[C@@H]1CN(Cc1cc(=O)c3cc(C)ccc3[nH]1)C2`: the cytotoxicity at 70.5 h was -7.09%.
With `CCN(CC)c1ncccc1CNCc1ccc(-c2ccn[nH]2)s1` the figure was -6.37%; with `CC(C)c1nc(CN(C)C(=O)C2CC(=O)N(Cc3ccncc3)C2)cs1` (stereo not drawn), 5.05%; with `Cc1cccc2cc(C(=O)N3CCC(F)(F)CC3)n(C)c12`, 32.7%.
As for `O=C1CCC2(CCNCC2)CN1CCCOc1cccnc1`, the cytotoxicity at 70.5 h was -1.48%.
In the case of `CCOCCn1c(=O)[nH]c2cc(C(=O)N(C)Cc3nc(C)c[nH]3)ccc21`, the cytotoxicity at 70.5 h was -5.85%.
As for `COCCN1CCN(Cc2ccc3nsnc3c2)[C@H]2CS(=O)(=O)C[C@H]21`, the cytotoxicity at 70.5 h is -5.97%.
The value for `CCOc1ccc2nc(CN3CCC(CNC(C)=O)C3)ccc2c1` (stereo not drawn) was 1.6%.
On to `COc1ccc(/C=C/CN2CCN(c3ncccc3C(N)=O)CC2)cc1`, for which the cytotoxicity at 70.5 h is -1.81%.
`N#Cc1cc2n(n1)CCN(C(=O)CCc1c[nH]c3ccccc13)C2`: the cytotoxicity at 70.5 h is -10.2%.
For the compound `CN(Cc1cnn(C)c1)C(=O)C1COc2ccccc2C1` (stereo not drawn), the cytotoxicity at 70.5 h was -5.03%.
The value for `CN1CCN2CCN(C(=O)c3cnn4cc(CCO)cnc34)CC2C1` (stereo not drawn) was -8.48%.
